From US20030134420A1, “Methods and compositions for gene delivery” (priority 2000, published 2003)

How the values were obtained:
[1] = test system: pCMVLuc luciferase expression per gram of liver; test: Luciferase expression in liver after tail vein injection of pCMVLuc polyplexes/formulants; conditions: mice; for Luciferase Average [pg./g liver]: 15 μg of DNA per injection
[2] = Biodistribution and clearance of 125I-pCMVβGal; format: in vivo; conditions: mice
Method: The biodistribution of ^125I-pCMV βGal was also studied in mice. Mice were injected with a dose of 300 μL containing 50 μg/mL of DNA. The distribution of free DNA, free DNA and TCDC, encapsulated in a polyplex comprised of block copolymer (PEG5k-b-(Cys-S—C18)10-b-(Lys)45) and the polyplex with TCDC were tested after 5 (FIG. 17A) and 60 (FIG. 17B) minutes. […] The clearance of ^125I-pCMVβGal was also studied using the ABC Polymer, (PEG5k-b-(Cys-S—C18)10-b-(Lys)45) (BP-A).

With `C[C@H](CCC(=O)NCCC[N+](C)(C)CCCS(=O)(=O)[O-])[C@H]1CC[C@H]2[C@@H]3[C@H](O)C[C@@H]4C[C@H](O)CC[C@]4(C)[C@H]3C[C@H](O)[C@]12C.O` [CHAPS, 3-[(3-Cholamidopropyl)dimethylammonio]1-propanesulfonate hydrate] the “Luciferase Average [pg./g liver]” value ([1]; formulant dose 0.50%) was 178 pg./g liver.
In the case of `C[C@H](CCC(=O)NCCC[N+](C)(C)CC(O)CS(=O)(=O)[O-])[C@H]1CC[C@H]2[C@@H]3[C@H](O)C[C@@H]4C[C@H](O)CC[C@]4(C)[C@H]3C[C@H](O)[C@]12C` (stereo partly drawn) [CHAPSO], the “Luciferase Average [pg./g liver]” value ([1]; formulant dose 0.50%) was 188 pg./g liver.
In the case of `C[C@H](CCC(=O)NCCCOCCOCCOCCCN)[C@H]1CC[C@H]2C3[C@H](O)C[C@@H]4C[C@H](O)CCC4(C)[C@H]3C[C@H](O)[C@]12C` (stereo partly drawn), the “Luciferase Average [pg./g liver]” value ([1]; formulant dose 0.10%) was 3964 pg./g liver.
For `CCCCCCC(=O)OC[C@H](COP(=O)([O-])OCC[N+](C)(C)C)OC(=O)CCCCCC` [DHPC], the “Luciferase Average [pg./g liver]” value ([1]; formulant dose 0.40%) was 470 pg./g liver and the “effect of addition of formulant on luciferase expression (FIG. 15)” value ([1]; 200 μL dose, 15 μg/mL pCMVLuc, Trigal copolymer polyplexes) was “greatly enhances the expression of luciferase”.
With `C[C@H](CCC(=O)NCCS(=O)(=O)[O-])[C@H]1CC[C@H]2[C@@H]3[C@@H](O)C[C@@H]4C[C@H](O)CC[C@]4(C)[C@H]3CC[C@]12C.[Na+]` [TCDC] the “biodistribution of 125I-pCMVβGal (FIG. 17)” value ([2]; 300 μL dose, 50 μg/mL DNA, BP-A polyplex with TCDC, 5 and 60 minutes) was “redirects the polyplex from the lungs and other organs to the blood”, the “clearance / half-life of 125I-pCMVβGal DNA” value ([2]; ABC Polymer (BP-A) polyplex, administration of TCDC) was “greatly enhanced the half-life of the DNA” and the “Luciferase Average [pg./g liver]” value ([1]; formulant dose 0.50%) was 517 pg./g liver.
In the case of `C[C@H](CCC(=O)N(CCCNC(=O)[C@H](O)[C@@H](O)[C@H](O)[C@H](O)CO)CCCNC(=O)[C@H](O)[C@@H](O)[C@H](O)[C@H](O)CO)[C@H]1CC[C@H]2[C@@H]3CC[C@@H]4C[C@H](O)CC[C@]4(C)[C@H]3C[C@H](O)[C@]12C` [Deoxy BIGCHAP], the “Luciferase Average [pg./g liver]” value ([1]; formulant dose 0.50%) was 129 pg./g liver.
